Laboratory results as given in paper PMC2680961, “Homologous desensitization of signalling by the alpha (α) isoform of the human thromboxane A2 receptor: A specific role for nitric oxide signalling” (Biochimica et Biophysica Acta, 2007).

Key:
TPα^S331,T337A [1] = target: T1, TPα^S331,T337A (Homo sapiens, UniProt P21731, S331A/T337A); assay: Intracellular calcium mobilization, HEK.TPα^S331,T337A cells; assay type: cell-based; conditions: for Δ[Ca2+]i, U46619-induced: HEK.TPα^S331,T337A
T1 construct: expressed in transfected cells
T1 sequence (P21731 1-343 S331A/T337A): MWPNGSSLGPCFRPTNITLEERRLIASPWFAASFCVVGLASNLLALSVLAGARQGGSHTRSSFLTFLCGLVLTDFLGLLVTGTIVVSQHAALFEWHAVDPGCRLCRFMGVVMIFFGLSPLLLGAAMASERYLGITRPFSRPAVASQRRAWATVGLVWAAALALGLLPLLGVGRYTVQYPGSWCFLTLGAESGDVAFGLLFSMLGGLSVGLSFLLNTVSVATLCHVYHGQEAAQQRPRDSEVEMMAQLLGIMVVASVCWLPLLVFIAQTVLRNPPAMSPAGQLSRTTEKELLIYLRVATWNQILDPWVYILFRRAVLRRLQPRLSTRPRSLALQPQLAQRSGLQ
Method: Measurement of intracellular calcium mobilization ([Ca^2+]i) in FURA2/AM preloaded HEK 293 cell lines (2 × 10^6 cells/dish), each transiently co-transfected with pADVA (10 μg), and pCMV:Gαq (25 μg), was carried out as previously described. To investigate the effect of GRK2/βARK1 on TP-mediated [Ca^2+]i mobilization, HEK.TPα or HEK.TPβ cells (2 × 10^6 cells/dish) were co-transfected with pADVA (10 μg), pCMV:Gαq (25 μg) along with pRK5:βARK1^495–689 (25 μg), encoding a dominant negative form of GRK2/βARK1[39]. Approximately 48 h post-transfection, cells were harvested by scraping, washed twice in ice-cold PBS and resuspended in HBSSHB (modified Ca^2+/Mg^2+-free Hank's buffered salt solution, containing […], pH 7.67, 0.1% bovine serum albumin (BSA)) buffer at 10^7 cells/ml and incubated in the dark with 5 μM FURA2/AM for 45 min at 37 °C. […] For each measurement of [Ca^2+]i mobilization, aliquots of cells were diluted to 0.825 × 10^6 cells/ml in HBSSHB, 1 mM CaCl2 and FURA2 fluorescence was recorded (2 ml aliquots of cells) at 37^ °C with gentle stirring with a Perkin Elmer-Cetus LS50-B spectrofluorometer at excitation wavelengths of 340 nm and 380 nm and emission wavelength of 510 nm, respectively.
Cells were stimulated with the TP agonist U46619 (1 μM) and changes in [Ca^2+]i mobilization were monitored as a function of time. To assess agonist-mediated homologous desensitization, cells (0.825 × 10^6 cells/ml; 2 ml per assay) were stimulated with 1 μM U46619 (Primary stimulation) or, as a control, with the vehicle for 4 min; thereafter, cells were collected by centrifugation (900×g, 5 min); were washed twice in 2 ml HBSSHB, 1 mM CaCl2; and finally resuspended in 2 ml HBSSHB,1 mM CaCl2 and were left to recover over various time intervals (ranging from 0 to 60 min); thereafter, cells re-stimulated with 1 μM U46619 (Secondary stimulation) and changes in [Ca^2+]i mobilization were monitored as a function of time. […]

TPα^S331,T337A [2] = target: T1, TPα^S331,T337A; assay: Agonist-mediated TP phosphorylation in whole cells, HEK.TPα^S331,T337A; assay type: cell-based; conditions: 1 μM U46619 10 min
Method: Agonist-mediated TP phosphorylation in whole cells (1.8–2 × 10^6 cells/10 cm dish) was performed essentially as previously described. Briefly, cells were transiently co-transfected with pADVA (10 μg), pCMV:Gαq (25 μg) plus pcDNA:βArrestin2 (25 μg) approximately 48 h prior to labelling. Thereafter, cells were washed once in phosphate-free DMEM, 10% dialysed FBS and were metabolically labelled for 60 min in the same medium (2 ml/10 cm dish) containing 100 μCi/ml [^32P] orthophosphate (8000–9000 Ci/mmol) at 37 °C, 5% CO2. Where appropriate, the PKG kinase inhibitor KT 5823 (50 nM) or its vehicle was added during the labelling period. Thereafter, U46619 (1 μM) or an equivalent volume of vehicle (0.01% ethanol in HBS; 20 μl) were added and cells were incubated for 10 min at 37 °C, 5% CO2. Reactions were terminated by transferring the dishes to ice and aspirating the labelled medium and HA-epitope tagged TP receptors were processed and immunoprecipitated using the anti-HA 101R antibody as previously described. Electroblots were then exposed to Xomat XAR (Kodak) film to detect ^32P-labelled proteins. Thereafter, blots were subject to phosphorimage analysis, and the intensities of agonist-induced phosphorylation were expressed in arbitrary units relative to basal (vehicle-stimulated) levels. […]

CCCCC[C@H](O)/C=C/[C@@H]1[C@@H](C/C=C\CCCC(=O)O)[C@H]2CO[C@@H]1C2 [U46619]
Δ[Ca2+]i, U46619-induced (TPα^S331,T337A [1]; primary 1 μM U46619 4 min): 181 ± 6.5 nM
Δ[Ca2+]i, U46619-induced (TPα^S331,T337A [1]; secondary 1 μM U46619 at 15 min): 60 ± 7.1 nM
secondary U46619 [Ca2+]i response relative to primary response (TPα^S331,T337A [1]; TPα^S331,T337A): 33%
U46619-induced phosphorylation of TPα^S331,T337A (TPα^S331,T337A [2]): failed to undergo significant U46619-induced phosphorylation above basal levels
